Experimental findings from ChEMBL document CHEMBL2074304, “Primary active transport of peptidic endothelin antagonists by rat hepatic canalicular membrane” (J Pharmacol Exp Ther, 1999) are described below.

Usually Ki stands for the equilibrium dissociation constant of an inhibitor or competing ligand from its target. For orientation: Km means the concentration of substrate that gives half-maximal velocity.

Square brackets hold non-standard residues; d marks the D form. Peptide text beside a SMILES is read from it. * marks the point of attachment. dGly(2-thienyl) = N[C@@H](C(=O)O)c1cccs1; Moc = COC(=O)*

What all share (type): functional, cell membranes, Sprague-Dawley, Bile canalicular membrane vesicle
In data set [1] the target is T1, ATP-binding cassette sub-family C member 2 (Rattus norvegicus, UniProt Q63120). As to the kind of experiment: TP_TRANSPORTER: inhibition of BQ-123 uptake in bile canalicular membrane vesicles from SD rat.
In data set [2] the target is T1, ATP-binding cassette sub-family C member 2. As to the kind of experiment: TP_TRANSPORTER: inhibition of BQ-485 uptake in bile canalicular membrane vesicles from SD rat.
Substrate in data set [3]: CC(C)C[C@@H]1NC(=O)[C@@H](C(C)C)NC(=O)[C@@H]2CCCN2C(=O)[C@@H](CC(=O)O)NC(=O)[C@@H](Cc2c[nH]c3ccccc23)NC1=O
Kind of data set: (§1) TP_TRANSPORTER: uptake in bile canalicular membrane vesicles from SD rat.

Substrate in data set [4]: CC(C)C[C@H](NC(=O)N1CCCCCC1)C(=O)N[C@H](Cc1c[nH]c2ccccc12)C(=O)N[C@H](Cc1c[nH]c2ccccc12)C(=O)O
The data set is described as §1.

Substrate in data set [5]: [H][C@@]12CCCN1C(=O)[C@@H](CC(=O)O)NC(=O)[C@@H](Cc1c[nH]c3ccccc13)NC(=O)[C@H](CC(C)C)NC(=O)[C@@H](c1cccs1)NC2=O
The description is as §1.

In turn, `CC(C)C[C@@H]1NC(=O)[C@@H](C(C)C)NC(=O)[C@@H]2C[C@H](OC(=O)[C@@H](N)CCCNC(=N)N)CN2C(=O)[C@@H](CC(=O)O)NC(=O)[C@@H](Cc2c[nH]c3ccccc23)NC1=O` registered an inhibitory constant (Ki) in data set [1] of 1.01 µM.

Turning to `CC(C)C[C@@H]1NC(=O)[C@@H](c2cccs2)NC(=O)[C@@H]2CCCN2C(=O)[C@@H](CC(=O)O)NC(=O)[C@@H](Cc2c[nH]c3ccccc23)NC1=O` (cyclo(L[dW][dD]P[dGly(2-thienyl)])), the affinity in data set [1], expressed as Ki, was 65.5 µM.

`COC(=O)n1cc(C[C@H]2NC(=O)[C@H](CC(C)C)NC(=O)[C@@H](C(C)C)NC(=O)[C@@H]3CCCN3C(=O)[C@@H](CC(=O)O)NC2=O)c2ccccc21` (cyclo(L[dW](Moc)[dD]P[dV])) had an inhibitory constant (Ki) in data set [1] of 54.1 µM.

The molecule `CC(C)C[C@@H]1NC(=O)[C@@H](C(C)C)NC(=O)[C@@H]2C[C@@H](OC(=O)[C@H](CCCCN)N(C)C)CN2C(=O)[C@@H](CC(=O)O)NC(=O)[C@@H](Cc2c[nH]c3ccccc23)NC1=O` gave a Ki in data set [1] of 85.4 µM.

Molecule `CC(C)C[C@H](NC(=O)N1CCCCCC1)C(=O)N[C@H](Cc1c[nH]c2ccccc12)C(=O)NC(C)CC(=O)O` (stereo not given in full) had a Ki in data set [1] of 40 µM.

Molecule `CC(C)C[C@H](NC(=O)N1CCCCCC1)C(=O)N[C@H](Cc1c[nH]c2ccccc12)C(=O)N[C@H](Cc1c[nH]c2ccccc12)C(=O)O` had an inhibitory constant (Ki) in data set [1] of 8.32 µM.

For the molecule `CC(C)C[C@@H]1NC(=O)[C@@H](C(C)C)NC(=O)[C@@H]2CCCN2C(=O)[C@@H](CC(=O)O)NC(=O)[C@@H](Cc2c[nH]c3ccccc23)NC1=O` [BQ-123] (cyclo(L[dW][dD]P[dV])), the affinity in data set [2], expressed as Ki, was 84.1 µM.

B1: ATP-binding cassette sub-family C member 2 (Rattus norvegicus) (protein)
chain: MDKFCNSTFWDLSLLESPEADLPLCFEQTVLVWIPLGFLWLLAPWQLYSVYRSRTKRSSITKFYLAKQVFVVFLLILAAIDLSLALTEDTGQATVPPVRYTNPILYLCTWLLVLAVQHSRQWCVRKNSWFLSLFWILSVLCGVFQFQTLIRALLKDSKSNMAYSYLFFVSYGFQIVLLILTAFSGPSDSTQTPSVTASFLSSITFSWYDRTVLKGYKHPLTLEDVWDIDEGFKTRSVTSKFEAAMTKDLQKARQAFQRRLQKSQRKPEATLHGLNKKQSQSQDVLVLEEAKKKSEKTTKDYPKSWLIKSLFKTFHVVILKSFILKLIHDLLVFLNPQLLKLLIGFVKSSNSYVWFGYICAILMFAVTLIQSFCLQSYFQHCFVLGMCVRTTVMSSIYKKALTLSNLARKQYTIGETVNLMSVDSQKLMDATNYMQLVWSSVIQITLSIFFLWRELGPSILAGVGVMVLLIPVNGVLATKIRNIQVQNMKNKDKRLKIMNEILSGIKILKYFAWEPSFQEQVQGIRKKELKNLLRFGQLQSLLIFILQITPILVSVVTFSVYVLVDSANVLNAEKAFTSITLFNILRFPLSMLPMVTSSILQASVSVDRLERYLGGDDLDTSAIRRVSNFDKAVKFSEASFTWDPDLEATIQDVNLDIKPGQLVAVVGTVGSGKSSLVSAMLGEMENVHGHITIQGSTAYVPQQSWIQNGTIKDNILFGSEYNEKKYQQVLKACALLPDLEILPGGDMAEIGEKGINLSGGQKQRVSLARAAYQDADIYILDDPLSAVDAHVGKHIFNKVVGPNGLLAGKTRIFVTHGIHFLPQVDEIVVLGKGTILEKGSYRDLLDKKGVFARNWKTFMKHSGPEGEATVNNDSEAEDDDDGLIPTMEEIPEDAASLAMRRENSLRRTLSRSSRSSSRRGKSLKNSLKIKNVNVLKEKEKEVEGQKLIKKEFVETGKVKFSIYLKYLQAVGWWSILFIILFYGLNNVAFIGSNLWLSAWTSDSDNLNGTNNSSSHRDMRIGVFGALGLAQGICLLISTLWSIYACRNASKALHGQLLTNILRAPMRFFDTTPTGRIVNRFSGDISTVDDLLPQTLRSWMMCFFGIAGTLVMICMATPVFAIIIIPLSILYISVQVFYVATSRQLRRLDSVTKSPIYSHFSETVTGLPIIRAFEHQQRFLAWNEKQIDINQKCVFSWITSNRWLAIRLELVGNLVVFCSALLLVIYRKTLTGDVVGFVLSNALNITQTLNWLVRMTSEAETNIVAVERISEYINVENEAPWVTDKRPPADWPRHGEIQFNNYQVRYRPELDLVLKGITCNIKSGEKVGVVGRTGAGKSSLTNCLFRILESAGGQIIIDGIDVASIGLHDLRERLTIIPQDPILFSGSLRMNLDPFNKYSDEEVWRALELAHLRSFVSGLQLGLLSEVTEGGDNLSIGQRQLLCLGRAVLRKSKILVLDEATAAVDLETDSLIQTTIRKEFSQCTVITIAHRLHTIMDSDKIMVLDNGKIVEYGSPEELLSNRGSFYLMAKEAGIENVNHTEL
For the molecule B1, the Km in data set [3] was determined as 97.8 µM; in data set [4] it was 6.46 µM; in data set [5] it was 15.1 µM.
